The values that follow come from BindingDB's records for patent WO2025049746 (Eikon Therapeutics, 2025).

pIC50: −log10 of the molar value.

Assay [1] addresses Bifunctional 3'-5' exonuclease/ATP-dependent helicase WRN (Homo sapiens, UniProt Q14191). In words: ADP-Glo Kinase Assay. On the procedure: ATPase activity was measured using the ADP-Glo Kinase Assay following the manufacturers recommended protocol.
For assay [2], the target named is T1, Bifunctional 3'-5' exonuclease/ATP-dependent helicase WRN [480-1251] (UniProt Q14191).
T1 construct: 480-1251
In words: Biochemical Activity Assays.

Bifunctional 3'-5' exonuclease/ATP-dependent helicase WRN, sequence (Q14191 whole entry): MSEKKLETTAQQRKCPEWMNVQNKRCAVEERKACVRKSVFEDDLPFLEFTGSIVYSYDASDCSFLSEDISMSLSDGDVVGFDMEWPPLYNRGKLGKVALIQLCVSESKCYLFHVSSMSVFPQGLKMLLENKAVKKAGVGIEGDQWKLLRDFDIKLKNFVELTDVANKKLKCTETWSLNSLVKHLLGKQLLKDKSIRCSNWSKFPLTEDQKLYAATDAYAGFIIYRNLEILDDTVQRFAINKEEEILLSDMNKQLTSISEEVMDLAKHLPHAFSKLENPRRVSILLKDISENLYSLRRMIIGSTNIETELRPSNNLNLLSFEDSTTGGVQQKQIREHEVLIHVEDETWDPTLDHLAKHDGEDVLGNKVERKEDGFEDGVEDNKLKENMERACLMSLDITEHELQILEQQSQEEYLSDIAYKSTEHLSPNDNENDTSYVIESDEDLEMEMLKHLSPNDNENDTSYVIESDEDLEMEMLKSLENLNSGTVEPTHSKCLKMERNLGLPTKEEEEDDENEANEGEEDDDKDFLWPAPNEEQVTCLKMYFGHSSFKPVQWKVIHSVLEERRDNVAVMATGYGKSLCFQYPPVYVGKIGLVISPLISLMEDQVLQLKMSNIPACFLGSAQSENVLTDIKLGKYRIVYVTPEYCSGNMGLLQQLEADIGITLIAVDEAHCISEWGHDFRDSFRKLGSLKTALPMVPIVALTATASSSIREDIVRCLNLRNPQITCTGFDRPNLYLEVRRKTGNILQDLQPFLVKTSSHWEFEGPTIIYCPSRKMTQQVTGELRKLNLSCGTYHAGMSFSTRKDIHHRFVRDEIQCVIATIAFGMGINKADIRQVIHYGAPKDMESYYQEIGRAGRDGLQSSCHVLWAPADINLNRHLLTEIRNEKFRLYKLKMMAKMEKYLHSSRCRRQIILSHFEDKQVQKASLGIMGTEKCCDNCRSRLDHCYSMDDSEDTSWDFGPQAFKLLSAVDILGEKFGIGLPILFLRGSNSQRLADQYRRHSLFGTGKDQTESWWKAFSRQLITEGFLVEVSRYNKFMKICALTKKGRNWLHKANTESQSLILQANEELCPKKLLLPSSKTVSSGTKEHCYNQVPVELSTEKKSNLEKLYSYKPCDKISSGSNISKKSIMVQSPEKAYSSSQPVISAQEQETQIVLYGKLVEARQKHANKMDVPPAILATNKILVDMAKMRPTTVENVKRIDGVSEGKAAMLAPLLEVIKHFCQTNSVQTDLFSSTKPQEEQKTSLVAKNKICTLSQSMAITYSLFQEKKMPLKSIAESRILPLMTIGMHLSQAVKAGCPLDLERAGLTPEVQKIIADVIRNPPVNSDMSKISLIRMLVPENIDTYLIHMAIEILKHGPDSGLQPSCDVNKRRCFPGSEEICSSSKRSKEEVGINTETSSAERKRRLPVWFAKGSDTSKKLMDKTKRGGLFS
T1 sequence (Q14191 480-1251): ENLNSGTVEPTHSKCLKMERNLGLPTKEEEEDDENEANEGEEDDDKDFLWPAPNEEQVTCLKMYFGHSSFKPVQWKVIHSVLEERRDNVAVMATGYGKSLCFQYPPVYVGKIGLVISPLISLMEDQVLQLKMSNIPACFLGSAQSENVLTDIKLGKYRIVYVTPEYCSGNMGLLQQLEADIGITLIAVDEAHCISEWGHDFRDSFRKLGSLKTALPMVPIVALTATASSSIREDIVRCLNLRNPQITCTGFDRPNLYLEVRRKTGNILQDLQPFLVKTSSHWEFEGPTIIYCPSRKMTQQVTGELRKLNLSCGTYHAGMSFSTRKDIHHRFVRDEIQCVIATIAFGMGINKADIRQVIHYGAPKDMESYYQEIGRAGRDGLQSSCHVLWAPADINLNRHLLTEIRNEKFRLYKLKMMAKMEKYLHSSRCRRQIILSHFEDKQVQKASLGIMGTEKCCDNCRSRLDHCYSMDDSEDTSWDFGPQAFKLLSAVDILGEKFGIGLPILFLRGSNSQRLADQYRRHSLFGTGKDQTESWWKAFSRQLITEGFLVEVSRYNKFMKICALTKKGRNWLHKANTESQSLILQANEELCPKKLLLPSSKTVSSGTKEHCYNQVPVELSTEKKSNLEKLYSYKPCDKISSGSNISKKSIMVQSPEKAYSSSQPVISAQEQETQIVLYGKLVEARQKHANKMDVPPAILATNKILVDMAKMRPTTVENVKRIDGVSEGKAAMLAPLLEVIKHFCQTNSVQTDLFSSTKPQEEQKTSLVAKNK

With `CCc1c(N2CCN(C(=O)c3cc4nnn(C)c4cc3OC)CC2)c(=O)n2nc(-c3ccc4c(c3)COC4)nc2n1CC(=O)Nc1ccc(C(F)(F)F)cc1Cl` [WO2025049746, Example 429], the pIC50 was 6.93 in assay [1] and 7.03 in assay [2].
In the same order, the values of `CCc1c(N2CCN(C(=O)C3=CCOCC3)CC2)c(=O)n2nc(-c3ccnc(O)n3)nc2n1CC(=O)Nc1ccc(C(F)(F)F)cc1Cl` [WO2025049746, Example 430] are 6.26 and 6.43.
On to `CCc1c(N2CCN(C(=O)c3nc4c(cc3O)OCCC4)CC2)c(=O)n2nc(-c3ccc4c(c3)COC4)nc2n1CC(=O)Nc1ccc(C(F)(F)F)cc1Cl` [WO2025049746, Example 432], for which the figures for the pIC50 in assay [1] and in assay [2] were 7.06 and 7.12, respectively.
In the same order, the values of `CCc1c(N2CCN(C(=O)c3cc4nnn(C)c4cc3O)CC2)c(=O)n2nc(-c3ccc4c(c3)COC4)nc2n1CC(=O)Nc1ccc(C(F)(F)F)cc1Cl` [WO2025049746, Example 433] are 6.86 and 6.96.
For `CCc1c(N2CCN(C(C)=O)CC2)c(=O)n2nc(-c3ncc(O)cn3)nc2n1CC(=O)Nc1ccc(C(F)(F)F)cc1Cl` [WO2025049746, Example 434] the same measures were 6.24 and 6.99.
For `CCc1c(N2CCN(C(=O)c3nc4c(cc3O)OCC4)CC2)c(=O)n2nc(-c3ccc4c(c3)COC4)nc2n1CC(=O)Nc1ccc(C(F)(F)F)cc1Cl` [WO2025049746, Example 435] the same measures were 7.21 and 7.30.
Take `CCc1c(N2CCN(C(=O)C3=CCOCC3)CC2)c(=O)n2nc(-c3ncc(O)cn3)nc2n1CC(=O)Nc1ccc(C(F)(F)F)cc1Cl` [WO2025049746, Example 436]: the pIC50 was 6.99 in assay [1] and 7.30 in assay [2].
For `CCc1c(N2CC[C@@H]3[C@@H]2CCCN3C(=O)c2ncnc(C)c2O)c(=O)n2nc(-c3ccc4c(c3)COC4)nc2n1CC(=O)Nc1ccc(C(F)(F)F)cc1Cl` [WO2025049746, Example 438] the same measures were 7.60 and 7.55.
In the same order, the values of `CCc1c(N2CCN(C(=O)c3nocc3O)CC2)c(=O)n2nc(-c3ccc4c(c3)COC4)nc2n1CC(=O)Nc1ccc(C(F)(F)F)cc1Cl` [WO2025049746, Example 439] are 7.30 and 7.28.
For `CCc1c(N2CCN(C(=O)c3nc4c(cc3O)COCC4)CC2)c(=O)n2nc(-c3ccc4c(c3)COC4)nc2n1CC(=O)Nc1ccc(C(F)(F)F)cc1Cl` [WO2025049746, Example 440] the same measures were 7.34 and 7.32.
For the compound `CCc1c(N2CCN(C(=O)c3nc4c(cc3O)CCOC4)CC2)c(=O)n2nc(-c3ccc4c(c3)COC4)nc2n1CC(=O)Nc1ccc(C(F)(F)F)cc1Cl` [WO2025049746, Example 441], the pIC50 in assay [1] was 7.17; in assay [2] it was 7.24.
For `CCc1c(N2CCN(C(=O)c3ncnc(C)c3O)CC2)c(=O)n2nc(-c3ccc4c(c3)COC4)nc2n1CC(=O)Nc1c(Cl)cc(C(F)(F)F)c2c1OCC2` [WO2025049746, Example 442] the same measures were 7.27 and 7.17.
Consider `CCc1c(N2CCN(C(=O)c3nsc(N4CCN(C)CC4)c3O)CC2)c(=O)n2nc(-c3ccc4c(c3)COC4)nc2n1CC(=O)Nc1ccc(C(F)(F)F)cc1Cl` [WO2025049746, Example 443], for which the pIC50 in assay [1] and in assay [2] was 7.19 in each case.
Regarding `CCc1c(N2CCN(C(=O)c3ncnc4cc[nH]c34)CC2)c(=O)n2nc(-c3ccc4c(c3)COC4)nc2n1CC(=O)Nc1ccc(C(F)(F)F)cc1Cl` [WO2025049746, Example 444], the pIC50 in assay [1] was 7.36; in assay [2] it was 7.40.
For `CCc1c(N2CCN(C(=O)c3nsc(N4CCOCC4)c3O)CC2)c(=O)n2nc(-c3ccc4c(c3)COC4)nc2n1CC(=O)Nc1ccc(C(F)(F)F)cc1Cl` [WO2025049746, Example 445] the same measures were 7.14 and 7.15.
In the same order, the values of `CCc1c(N2CCN(C(=O)c3nocc3O)CC2)c(=O)n2nc(-c3ccc4c(c3)COC4)nc2n1CC(=O)Nc1ccc(C(F)(F)F)cc1Cl` [WO2025049746, Example 446] are 7.70 and 7.70.
In the same order, the values of `CCc1c(N2CCN(C(=O)c3ncnc(C)c3O)CC2)c(=O)n2nc(-c3ccc4c(c3)COC4)nc2n1CC(=O)Nc1c(Cl)cc(C(F)(F)F)c2ccoc12` [WO2025049746, Example 447] are 7.42 and 7.42.
Consider `CCc1c(N2CCN(C(=O)c3nsc(-c4ccncc4)c3O)CC2)c(=O)n2nc(-c3ccc4c(c3)COC4)nc2n1CC(=O)Nc1ccc(C(F)(F)F)cc1Cl` [WO2025049746, Example 448], for which the pIC50 was 7.31 in assay [1] and 7.38 in assay [2].
Turning to `CCc1c(N2CCN(C(=O)c3c(C#N)cnc(C)c3O)CC2)c(=O)n2nc(-c3ccc4c(c3)COC4)nc2n1CC(=O)Nc1ccc(C(F)(F)F)cc1Cl` [WO2025049746, Example 449], the pIC50 in assay [1] is 7.40; in assay [2], 7.35.
In the same order, the values of `CCc1c(N2CCN(C(=O)c3cc(N4CCN(C)CC4)nc(C)c3O)CC2)c(=O)n2nc(-c3ccc4c(c3)COC4)nc2n1CC(=O)Nc1ccc(C(F)(F)F)cc1Cl` [WO2025049746, Example 450] are 6.97 and 6.99.
As to `CCc1c(N2CCN(C(=O)c3ncnc(C)c3O)CC2)c(=O)n2c(C)c(-c3ccc4c(c3)COC4)nc2n1CC(=O)Nc1ccc(C(F)(F)F)cc1Cl` [WO2025049746, Example 451], the pIC50 in assay [1] and in assay [2] was 5.16 each time.
Regarding `CCc1c(N2CCN(C(=O)c3ncnc(C)c3O)CC2)c(=O)n2c(CO)c(-c3ccc4c(c3)COC4)nc2n1CC(=O)Nc1ccc(C(F)(F)F)cc1Cl` [WO2025049746, Example 452], the values for the pIC50 in assay [1] and in assay [2] were 5.01 and 4.53, respectively.
For `CCc1c(N2CCN(C(=O)c3ncnc(C)c3O)C[C@@H]2C)c(=O)n2nc(-c3ccc4c(c3)COC4(C)C)nc2n1CC(=O)Nc1ccc(C(F)(F)F)cc1Cl` [WO2025049746, Example 453] the same measures were 7.41 and 7.30.
For `CCc1c(N2CCN(C(=O)c3nccc4cc[nH]c34)CC2)c(=O)n2nc(-c3ccc4c(c3)COC4(C)C)nc2n1CC(=O)Nc1ccc(C(F)(F)F)cc1Cl` [WO2025049746, Example 454] the same measures were 6.31 and 6.43.
For `CCc1c(N2CCN(C(=O)c3ccnc(C)c3O)CC2)c(=O)n2nc(-c3ccc4c(c3)COC4(C)C)nc2n1CC(=O)Nc1ccc(C(F)(F)F)cc1Cl` [WO2025049746, Example 455] the same measures were 7.40 and 7.32.
As to `CCc1c(N2CCN(C(=O)c3nccc4nc[nH]c34)CC2)c(=O)n2nc(-c3ccc4c(c3)COC4(C)C)nc2n1CC(=O)Nc1ccc(C(F)(F)F)cc1Cl` [WO2025049746, Example 456], the pIC50 in assay [1] is 7.24; in assay [2], 7.26.
On to `CCc1c(N2CCN(C(=O)c3ncnc(C)c3O)[C@H](C)C2)c(=O)n2nc(-c3ccc4c(c3)COC4(C)C)nc2n1CC(=O)Nc1ccc(C(F)(F)F)cc1Cl` [WO2025049746, Example 457], for which the pIC50 in assay [1] was 7.41; in assay [2], 7.40.
For `CCc1c(N2CCN(C(=O)c3ncnc(C)c3O)[C@H]3CC[C@@H]32)c(=O)n2nc(-c3ccc4c(c3)COC4(C)C)nc2n1CC(=O)Nc1ccc(C(F)(F)F)cc1Cl` [WO2025049746, Example 458] the same measures were 7.05 and 7.03.
In the same order, the values of `CCc1c(N2CCN(C(=O)c3ncnc(C)c3O)[C@@H]3CC[C@@H]32)c(=O)n2nc(-c3ccc4c(c3)COC4(C)C)nc2n1CC(=O)Nc1ccc(C(F)(F)F)cc1Cl` [WO2025049746, Example 459] are 7.04 and 7.09.
For `CCc1c(N2CCN(C(=O)c3ncnc(C)c3O)[C@H]3CC[C@H]32)c(=O)n2nc(-c3ccc4c(c3)COC4(C)C)nc2n1CC(=O)Nc1ccc(C(F)(F)F)cc1Cl` [WO2025049746, Example 460] the same measures were 7.28 and 7.35.
Turning to `CCc1c(N2CC[C@@H](C)N(C(=O)c3ncnc(C)c3O)CC2)c(=O)n2nc(-c3ccc4c(c3)COC4(C)C)nc2n1CC(=O)Nc1ccc(C(F)(F)F)cc1Cl` [WO2025049746, Example 461], the pIC50 was 7.35 in assay [1] and 7.30 in assay [2].
For `CCc1c(N2CCN(C(=O)c3nc4n(c(=O)c3O)CCOC4)CC2)c(=O)n2nc(-c3ccc4c(c3)COC4(C)C)nc2n1CC(=O)Nc1ccc(C(F)(F)F)cc1Cl` [WO2025049746, Example 462] the same measures were 7.45 and 7.40.
For `CCc1c(N2CCN(C(=O)c3nc4c(cc3O)CCOC4)CC2)c(=O)n2nc(-c3ccc4c(c3)COC4(C)C)nc2n1CC(=O)Nc1ccc(C(F)(F)F)cc1Cl` [WO2025049746, Example 463] the same measures were 7.15 and 7.07.
On to `CCc1c(N2CCN(C(=O)c3nc4c(cc3OCc3ccc(OC)cc3)COCC4)CC2)c(=O)n2nc(-c3ccc4c(c3)COC4(C)C)nc2n1CC(=O)Nc1ccc(C(F)(F)F)cc1Cl` [WO2025049746, Example 464], for which the pIC50 in assay [1] is 7.17; in assay [2] it was 7.08.
In the same order, the values of `Cc1ncnc(C(=O)N2CCN(c3c4n(c5nc(-c6ccc7c(c6)COC7(C)C)nn5c3=O)[C@@H](C(=O)Nc3ccc(C(F)(F)F)cc3Cl)C[C@H]4C)[C@H]3CC[C@@H]32)c1O` [WO2025049746, Example 465] are 7.54 and 7.50.
Turning to `Cc1ncnc(C(=O)N2CCN(c3c4n(c5nc(-c6ccc7c(c6)COC7(C)C)nn5c3=O)[C@@H](C(=O)Nc3ccc(C(F)(F)F)cc3Cl)C[C@@H]4C)[C@H]3CC[C@@H]32)c1O` [WO2025049746, Example 466], the pIC50 is below 4.53 in assay [1] and 5.03 in assay [2].
For `Cc1ncnc(C(=O)N2CCN(c3c4n(c5nc(-c6ccc7c(c6)COC7(C)C)nn5c3=O)[C@H](C(=O)Nc3ccc(C(F)(F)F)cc3Cl)C[C@H]4C)[C@H]3CC[C@@H]32)c1O` [WO2025049746, Example 467], the pIC50 in assay [1] is below 4.53; in assay [2], 5.02.
